These results are taken from patent US20220387604A1, “SELECTIVE DUAL HISTONE DEACETYLASE 6/8 (HDAC6/8) DEGRADERS AND METHODS OF USE THEREOF” (DANA-FARBER CANCER INSTITUTE, INC., priority 2019, published 2022).

Structures are written as SMILES.

The test system of assay [1] is other identified HDAC proteins. As to the kind of experiment: Quantitative proteomics of cellular protein abundance in Kelly cells: other identified HDAC proteins. Format: cell-based, human. The settings on record: 1 μM, 5 hours, compared to DMSO control. The procedure: Lysis buffer (8 M Urea, 50 mM NaCl, 50 mM 4-(2hydroxyethyl)-1-piperazineethanesulfonic acid (EPPS) pH 8.5, protease and phosphatase inhibitors from Roche®) were added to the cell pellets and homogenized by 20 passes through a 21 gauge (1.25 in. long) needle to achieve a cell lysate with a protein concentration between 1-4 mg mL^−1. A micro-BCA assay (Pierce™) was used to determine the final protein concentration in the cell lysate. 200 μg of protein for each sample were reduced and alkylated as described in Donovan et al., Elife 7:e38430 (2018).
Proteins were precipitated using methanol/chloroform. Four volumes of methanol were added to the cell lysate, followed by one volume of chloroform, and finally three volumes of water. The mixture was vortexed and centrifuged to separate the chloroform phase from the aqueous phase. The precipitated protein was washed with three volumes of methanol, centrifuged and the resulting washed precipitated protein was allowed to air dry. The precipitated protein was resuspended in 4 M Urea, 50 mM HEPES pH 7.4, followed by dilution to 1 M urea with the addition of 200 mM EPPS, pH 8. Proteins were first digested with LysC (1:50; enzyme:protein) for 12 hours at room temperature. The LysC digestion was diluted to 0.5 M Urea with 200 mM EPPS pH 8 followed by digestion with trypsin (1:50; enzyme:protein) for 6 hours at 37° C. Tandem mass tag (TMT) reagents (Thermo Fisher Scientific) were dissolved in anhydrous acetonitrile (ACN) according to manufacturer's instructions.
Anhydrous ACN was added to each peptide sample to a final concentration of 30% v/v, and labeling was induced with the addition of TMT reagent to each sample at a ratio of 1:4 peptide:TMT label. […] The sample channels were combined at a 1:1:1:1:1:1:1:1:1:1:1 ratio, desalted using C18 solid phase extraction cartridges (Waters®) and analyzed by LC-MS for channel ratio comparison. Samples were then combined using the adjusted volumes determined in the channel ratio analysis and dried down in a speed vacuum. […]

For a further assay, the target named is T1, CRBN (Homo sapiens, UniProt Q96SW2).
T1 construct: endogenous in cells; host or cells: Flip-In 293 cells stably expressing BRD4BD2-eGFP-P2A-mCherry
Kind of assay: Cellular CRBN engagement assay (competition with dBET6, BRD4BD2-eGFP reporter, Flip-In 293 cells). Format: cell-based. The following applies: titrated in the presence of 100 nM dBET6, 5 h, Flip-In 293 cells expressing BRD4BD2-eGFP/mCherry. The procedure:
BRD4BD2 was subcloned into mammalian pcDNA5/FRT Vector (Ampicillin and Hygromycin B resistant) modified to contain MCS-eGFP-P2A-mCherry. Stable cell lines expressing eGFP-protein fusion and mCherry reporter were generated using Flip-In 293 system. Plasmid (0.3 μg) and pOG44 (4.7 μg) DNA were preincubated in 100 μL of Opti-MEM I (Gibco, Life Technologies™) media containing 0.05 mg/ml Lipofectamine 2000 (Invitrogen™) for 20 min and added to Flip-In 293 cells containing 1.9 ml of DMEM media (Gibco, Life Technologies™) per well in a 6-well plate format (Falcon, 353046). Cells were propagated after 48 h and transferred into a […] (Coming, 430165) in DMEM media containing 50 μg/ml of Hygromycin B (REF 10687010, Invitrogen™) as a selection marker. Following 2-3 passage cycles, FACS (FACSAria II, BD) was used to enrich for cells expressing eGFP and mCherry.
Cells were seeded at 30-50% confluency in either 24, 48 or 96 well plates (3524, 3548, 3596 respectively, Costar) a day before compound treatment. The inventive compounds were titrated in the presence of 100 nM dBET6 and then were incubated with cells for 5 h following trypsinization and resuspension in DMEM media, transferred into 96-well plates (353910, Falcon) and analyzed by flow cytometer (Guava® easyCyte™ HT, Millipore). Signal from at least 3000 events per well was acquired and the eGFP and mCherry florescence monitored. Data was analyzed using FlowJo® (FlowJo®, LCC). Forward and side scatter outliers, frequently associated with cell debris, were removed leaving >90% of total cells, followed by removal of eGFP and mCherry signal outliers, leaving 88-90% of total cells creating the set used for quantification. The eGFP protein abundance relative to mCherry was then quantified as a ten-fold amplified ratio for each individual cell using the formula: 10× eGFP/mCherry. The median of the ratio was then calculated per set, normalized to the median of the DMSO ratio. […]

By IC50 is commonly meant the concentration needed to halve the response being measured. In the case of `O=C(/C=C/c1ccc(CN(CCOCCOCCNc2cccc3c2C(=O)N(C2CCC(=O)NC2=O)C3=O)CCc2c[nH]c3ccccc23)cc1)NO` (stereo not drawn) [Compound 1, (E)-3-(4-(((2-(1H-indol-3-yl)ethyl)(2-(2-(2-((2-(2,6-dioxopiperidin-3-yl)-1,3-dioxoisoindolin-4-yl)amino)ethoxy)ethoxy)ethyl)amino)methyl)phenyl)-N-hydroxyacrylamide], in assay [1], the “change of cellular protein levels of the other identified HDAC proteins (heat map FIG. 3)” value is on record as “did not affect”. On CRBN, the half-inhibitory concentration (IC50) turned out to be 11.7 µM.
For `O=C(/C=C/c1ccc(CN(CCCCCNc2cccc3c2C(=O)N(C2CCC(=O)NC2=O)C3=O)CCc2c[nH]c3ccccc23)cc1)NO` (stereo not drawn) [Compound 3, (E)-3-(4-(((2-(1H-indol-3-yl)ethyl)(5-((2-(2,6-dioxopiperidin-3-yl)-1,3-dioxoisoindolin-4-yl)amino)pentyl)amino)methyl)phenyl)-N-hydroxyacrylamide], in that order: “did not affect” and 10 µM.
As for `O=C(/C=C/c1ccc(CN(CCOCCNc2cccc3c2C(=O)N(C2CCC(=O)NC2=O)C3=O)CCc2c[nH]c3ccccc23)cc1)NO` (stereo not drawn) [Compound 2, (E)-3-(4-(((2-(1H-indol-3-yl)ethyl)(2-(2-((2-(2,6-dioxopiperidin-3-yl)-1,3-dioxoisoindolin-4-yl)amino)ethoxy)ethyl)amino)methyl)phenyl)-N-hydroxyacrylamide], in assay [1], the “change of cellular protein levels of the other identified HDAC proteins (heat map FIG. 3)” value is given as “did not affect”. Further, the IC50 at CRBN amounted to 19.2 µM.
